Experimental data from article PMC9445589, “Apolipoprotein E mimetic peptide COG1410 combats pandrug-resistant Acinetobacter baumannii” (Frontiers in Microbiology, 2022).
≈ marks a conversion by molar mass, not a printed value. Entries after “also recorded” stand apart in the source; their conditions may differ. Non-standard residues stand in square brackets, D forms with d. Residues, ends and D or L forms follow the SMILES beside them. Aib = CC(C)(N)C(=O)O

Legend:
[1] = tested on: PDR Acinetobacter baumannii YQ4; assay: microbe, parasite or virus in culture; assay type: cell-based
Method: Strain stocks were maintained at −80°C in 10% glycerol. Bacteria were streaked on fresh plates before each experiment. Most of them were cultured in LB broth containing 10 g/L NaCl at 37°C, except for Mycobacteria in 7H9 broth and Enterococcus in BHI broth. Porphyromonas gingivalis was cultured in BHI broth supplemented with 1 μg/ml vitamin k1, 5 μg/ml hemin, and 5 mg/ml L-cysteine hydrochloride at 37°C in the anaerobic chamber. The minimal inhibitory concentrations (MICs) of antimicrobials were determined using the microdilution method in the corresponding broth.
The pandrug-resistant A. baumannii YQ4 was collected from the clinical laboratory of the second hospital in Nanjing. The complete genome was sequenced by Nanopore, and the data were deposited in the GenBank with accession number CP053033.

[2] = stability in human plasma, disk diffusion read-out; conditions: 100% human plasma, 10 mg/ml, 37°C, first 2 h; disk diffusion on A. baumannii YQ4, three independent experiments
Method: In order to determine the stability in human plasma, COG1410 was dissolved in1 ml of 100 % human plasma with the final concentration of 10 mg/ml and incubated at 37°C without shaking. Aliquots of 100 μl were taken at 0, 1, 2, 4, 6, 8, and 10 h. The log-phase culture of A. baumannii YQ4 was prepared as described above. About 200 μl of culture was mixed with 6 ml of 0.8% soft agar to make a two-layered plate. After air drying for 30 min, four 6-mm paper disks were placed on the top, and 6-μl aliquots of COG1410 at different time points were dropped on the paper disks. After 18 h of incubation at 37°C, the inhibition zones were recorded by a digital camera, and the inhibition diameters were measured by image J. Three independent experiments were performed.
About 10 mg/ml of COG1410 was incubated with 100% human plasma at 37°C and sampled at different time points. The stability of COG1410 was determined by evaluating the antibacterial activity against PDR A. baumannii YQ4 through the disk diffusion assay. The diameters of inhibition were measured. Three independent experiments were performed and data were represented as mean ± SD. The statistical significance between initial and different points was analyzed by Student's t-test. ^* indicated p < 0.05; ^*** indicated p < 0.001. Click here for additional data file.

A. baumannii YQ4 biofilm = assay: static biofilm inhibition, crystal violet; assay type: cell-based, Acinetobacter baumannii; conditions: 48 h
Method: Static biofilm inhibition was performed as described previously (Gaddy and Actis, [2009]). Briefly, the log-phase culture of A. baumannii YQ4 was prepared as described above. About 200 μl of culture was seeded in each cell of the 96-well PVC plate with OD600 of 0.01 (ca. 1 × 10^6 CFU/ml), which was exposed to different COG1410 solutions with the final concentrations ranging from 0.5 to 128 μg/ml. Each concentration was determined in eight wells. After incubation at 37°C for 48 h, the planktonic bacteria were removed by washing three times with sterilized water, followed by fixing in methanol for 15 min and staining with 0.1% crystal violet (CV) for 15 min. Excess CV was washed off, and the bound CV was eluted from the biofilm into 150 μl of 95% ethanol and quantitated spectrophotometrically at 600 nm using a Biotek Synergy H1 plate reader. The experiments were performed in triplicate.

plasmid pUC18 = assay: DNA-binding assay, gel retardation
Method: Gel retardation experiments were conducted as previously described (Yan et al., [2013]). Briefly, 300 ng of the plasmid pUC18 was mixed with different concentrations of COG1410 in 30 μl of buffer (10 mM Tris-HCl and 1 mM EDTA buffer, pH 8.0) and incubated at room temperature for 30 min. The reaction mixtures were mixed with 1 × native loading buffer and subjected to 1.5% agarose gel electrophoresis. The migration of DNA was detected by the fluorescence of GelRed dye.

[3] = tested on: A. baumannii ATCC19606 and two LPS-modified strains, pmrA^P102R and pmrA^P102RmiaA^I221V; assay: MIC against LPS-modified strains; assay type: cell-based, Acinetobacter baumannii; conditions: MIC in LB broth, wild type versus mutants
Method: The growth curve was measured in duplicate, with eight wells for each treatment in a 96-well plate each time. […] Experiments were conducted in triplicate. Data indicated mean ± SD values.

[4] = tested on: MDR Pseudomonas aeruginosa 14–61; conditions: microdilution method in the corresponding broth
[5] = tested on: Acinetobacter baumannii ATCC19606
A. baumannii = conditions: 1× MIC, PBS, 2 h
[6] = tested on: human red blood cell (RBC); conditions: 1 h
Method: The anti-coagulated (citrate) whole blood sample was pelleted by centrifugation at 700 g for 8 min, washed three times with PBS, and suspended in 0.5% (vol/vol) PBS. […] The highest concentration was 512 μg/ml (363 μM). PBS and Triton X-100 (0.1%) were used as negative and positive controls, respectively. The plate was incubated at 37°C for 1 h, followed by centrifugation at 1,000 rpm for 5 min at 4°C. Aliquots of 60 μl of the supernatant from each well were quickly transferred to a new flat-bottom 96-well plate. The optical absorbance at OD414 was measured with a microplate reader (BioTek, synergy H1). The hemolysis percentage was then normalized with respect to the averaged negative (0%) and positive (100%) controls. Three independent experiments were conducted.

A. baumannii YQ4 = assay: dynamic time-kill assay in PBS

SMILES: CC(=O)N[C@@H](C)C(=O)N[C@@H](CO)C(=O)NC(C)(C)C(=O)N[C@@H](CC(C)C)C(=O)N[C@@H](CCCNC(=N)N)C(=O)N[C@@H](CCCCN)C(=O)N[C@@H](CC(C)C)C(=O)NC(C)(C)C(=O)N[C@@H](CCCCN)C(=O)N[C@@H](CCCNC(=N)N)C(=O)N[C@@H](CC(C)C)C(=O)N[C@@H](CC(C)C)C(N)=O [COG1410, acetyl-AS-Aib-LRKL-Aib-KRLL-amide] (Ac-AS[Aib]LRKL[Aib]KRLL-NH2)
- MIC ([1]; PDR YQ4): 11.3 µM
- MIC ([1]; microdilution method, LB broth): 16 µg/mL
- change of inhibition diameter / degradation [2]: did not significantly change; also recorded: does not seem to be significantly degraded
- biofilm formation, in words (A. baumannii YQ4 biofilm; 1/2 MIC, crystal violet): significantly reduced biofilm formation
- reduction of biofilm mass (A. baumannii YQ4 biofilm; 1× MIC, 37°C, crystal violet OD600, versus untreated control): 55%
- electrophoretic mobility of pUC18 (plasmid pUC18; 1× MIC, 300 ng plasmid, 30 min room temperature, 1.5% agarose): only part of them migrated
- electrophoretic mobility of pUC18 (plasmid pUC18; higher concentrations than 1× MIC): completely retarded
- effect of lipid A modification of LPS on antimicrobial efficacy [3]: did not change the antimicrobial efficacy
- MIC [4]: >256 µg/mL
- MIC [5]: 16 µg/mL (≈ 11.4 µM)
- A. baumannii population killed, in words (A. baumannii): almost complete elimination
- EC50, lysis of half of the red blood cells [6]: 441 µg/mL
- hemolysis ([6]; red cells of human, 128 μg/ml): < 5%
- elimination of the inoculum (A. baumannii YQ4; 5 × MIC (80 μg/ml), within 5 min, PBS, inoculum 1 × 10^8 CFU/ml): completely eliminated
- time to eliminate large inocula (A. baumannii YQ4; inocula 10^8 CFU/ml): ≤ 30 min
